Assay results reported in US11319324B2, “Pyrazolo-pyrrolo-pyrimidine-dione derivatives as P2X3 inhibitors” (Bayer Aktiengesellschaft, priority 2017, dated 2022).

What was measured:
Assay type in all cases: cell-based
human P2X2/3 receptors = biological target: T1, human P2X2/3 receptors (Homo sapiens, UniProt P56373+Q9UBL9); assay: Intracellular calcium measurement, antagonist activity at human P2X2/3 receptors (hP2X23 1321N1), Fluo8; settings: for IC50: column 4); 1321N1 cells, human P2X2/3, Fluo8, agonist ATP at EC50; read-out: 4) hP2X2/3 IC50 [nM] (1321N1); for hP2X23/hP2X3* Selectivity (1321N1): ratio of column 4) hP2X2/3 to column 3) hP2X3, 1321N1
T1 construct: expressed in transfected cells; host or cells: human astrocytoma 1321N1 (1312N1 [sic])
T1 sequence (P56373 1-397): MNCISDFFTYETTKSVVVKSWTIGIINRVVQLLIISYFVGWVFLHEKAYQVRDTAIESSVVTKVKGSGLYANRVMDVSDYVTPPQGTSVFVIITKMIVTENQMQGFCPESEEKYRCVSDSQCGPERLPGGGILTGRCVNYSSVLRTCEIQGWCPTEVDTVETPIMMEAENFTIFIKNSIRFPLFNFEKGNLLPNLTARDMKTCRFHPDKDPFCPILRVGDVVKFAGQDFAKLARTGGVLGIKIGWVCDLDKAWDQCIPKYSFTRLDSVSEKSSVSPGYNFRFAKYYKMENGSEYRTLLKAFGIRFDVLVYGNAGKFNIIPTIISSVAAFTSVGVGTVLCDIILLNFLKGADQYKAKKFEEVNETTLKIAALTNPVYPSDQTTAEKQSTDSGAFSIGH
T1 sequence (Q9UBL9 1-471): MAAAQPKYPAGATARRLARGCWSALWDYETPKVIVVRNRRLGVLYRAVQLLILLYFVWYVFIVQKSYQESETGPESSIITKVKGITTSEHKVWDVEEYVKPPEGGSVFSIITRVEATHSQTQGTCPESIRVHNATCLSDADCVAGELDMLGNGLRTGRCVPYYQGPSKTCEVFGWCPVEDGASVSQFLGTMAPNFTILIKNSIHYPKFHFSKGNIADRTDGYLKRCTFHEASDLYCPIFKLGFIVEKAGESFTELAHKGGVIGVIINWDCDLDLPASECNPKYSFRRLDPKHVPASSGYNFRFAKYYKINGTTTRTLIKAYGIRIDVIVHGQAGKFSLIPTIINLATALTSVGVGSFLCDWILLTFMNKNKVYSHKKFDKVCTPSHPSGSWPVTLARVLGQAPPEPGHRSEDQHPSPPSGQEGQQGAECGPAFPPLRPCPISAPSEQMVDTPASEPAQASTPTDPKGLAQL
Summary of the method: (§1)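 Antagonism was assessed by decrease of the Fluo8 calcium signal after ATP challenge, with ATP dosed at the EC50 of whichever receptor was tested. Stable 1321N1 astrocytoma lines expressed either human P2X3 or both P2X2 and P2X3, and were dye-loaded 60 min before a 10 min compound incubation.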

human P2X3 receptor [1] = biological target: T2, human P2X3 receptor (Homo sapiens, UniProt P56373); assay: Intracellular calcium measurement to assess antagonist activity at human P2X3 receptors (hP2X3 CHO), photina luminescence; set-up: expressed in transfected cells; host or cells: Chinese hamster ovary (CHO) cells; settings: column 2), CHO cells, agonist α,β-methylene-ATP at EC50
T2 sequence (P56373 1-397): T1 sequence (P56373 1-397)
Summary of the method: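 Antagonism read as lowered photina luminescence after agonist stimulation in recombinant hP2X3/photina CHO cells. Cells seeded one day earlier (30 °C) and reconstituted with 5 μg/ml coelenterazine in 2 mM Ca-tyrode buffer for 3 h at 37 °C before measurement.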

human P2X3 receptor [2] = biological target: T2, human P2X3 receptor; assay: Intracellular calcium measurement, antagonist activity at human P2X3 receptors (hP2X3 1321N1), Fluo8; set-up: expressed in transfected cells; host or cells: human astrocytoma 1321N1 (1312N1 [sic]); settings: column 3); 1321N1 cells, human P2X3, Fluo8, agonist ATP at EC50
Summary of the method: as §1

IC50 (human P2X2/3 receptors) [nM] | hP2X23/hP2X3* Selectivity (1321N1) (human P2X2/3 receptors) | IC50 (human P2X3 receptor [1]) [nM] | IC50 (human P2X3 receptor [2]) [nM] | Structure (SMILES)
> 21500 | >13 | 470 | 1670 | CCc1cc2n(CC(=O)Nc3ccc(F)cn3)c3c(c(=O)n2n1)CN(C1CCN(C(=O)OC(C)(C)C)CC1)C3=O [Example 76]
10500 | 51 | 200 | 207 | CCc1cc2n(CC(=O)Nc3ccc(C)cn3)c3c(c(=O)n2n1)CN(C(C)C)C3=O [Example 65]
9100 | 607 | 21 | 15 | CCc1cc2n(CC(=O)Nc3ccc(F)cn3)c3c(c(=O)n2n1)CN(C(COC)COC)C3=O [Example 99]
1140 | 165 | 11 | 7 | CC(C)N1Cc2c(n(CC(=O)Nc3ccc(F)cn3)c3cc(C4=CCN(C(=O)OC(C)(C)C)C4)nn3c2=O)C1=O [Example 142, tert-butyl 3-[4-{2-[(5-fluoropyridin-2-yl)amino]-2-oxoethyl}-5,8-dioxo-6-(propan-2-yl)-5,6,7,8-tetrahydro-4H-pyrazolo[1,5-a]pyrrolo[3,4-d]pyrimidin-2-yl]-2,5-dihydro-1H-pyrrole-1-carboxylate]
1660 | 160 | 17 | 10 | CCc1cc2n(CC(=O)Nc3ccc(F)cn3)c3c(c(=O)n2n1)CN(CCNC(=O)OC(C)(C)C)C3=O [Example 68, tert-butyl {2-[2-ethyl-4-{2-[(5-fluoropyridin-2-yl)amino]-2-oxoethyl}-5,8-dioxo-5,8-dihydro-4H-pyrazolo[1,5-a]pyrrolo[3,4-d]pyrimidin-6(7H)-yl]ethyl}carbamate]
> 23500 | >291 | 35 | 81 | COC[C@H](C)N1Cc2c(n(CC(=O)Nc3ccc(F)cn3)c3cc(C(=O)N(C)C)nn3c2=O)C1=O [Example 189]
> 23000 | >184 | 111 | 125 | CCc1cc2n(CC(=O)Nc3ccc(F)cn3)c3c(c(=O)n2n1)CN(C1CCOC1)C3=O (racemic) [Example 71, 2-{2-ethyl-5,8-dioxo-6-[(±)-tetrahydrofuran-3-yl]-5,6,7,8-tetrahydro-4H-pyrazolo[1,5-a]pyrrolo[3,4-d]pyrimidin-4-yl}-N-(5-fluoropyridin-2-yl)acetamide]
13000 | 90 | 83 | 145 | Cc1ccc(NC(=O)Cn2c3c(c(=O)n4nc(C5CCOCC5)cc24)CN(C(C)C)C3=O)nc1 [Example 59]
7000 | 1321 | 11 | 5 | CC(C)N1Cc2c(n(CC(=O)Nc3ccc(F)cn3)c3cc(C(=O)N(C)CC4CC4)nn3c2=O)C1=O [Example 199]
7300 | 66 | 150 | 110 | CCc1cc2n(CC(=O)Nc3ccc(F)cn3)c3c(c(=O)n2n1)CN(C1CCNC1)C3=O (single isomer, unassigned) [Example 277, 2-{2-ethyl-5,8-dioxo-6-[pyrrolidin-3-yl]-5,6,7,8-tetrahydro-4H-pyrazolo[1,5-a]pyrrolo[3,4-d]-pyrimidin-4-yl}-N-(5-fluoropyridin-2-yl)acetamide]
8200 | 248 | 22 | 33 | CC(C)N1Cc2c(n(CC(=O)Nc3ccc(F)cn3)c3cc(NC(=O)c4cnn[nH]4)nn3c2=O)C1=O [Example 286]
> 20200 | >223 | 130 | 91 | CC(C)N1Cc2c(n(CC(=O)Nc3ccc(F)cn3)c3cc(NCCO)nn3c2=O)C1=O [Example 276, N-(5-fluoropyridin-2-yl)-2-{2-[(2-hydroxyethyl)amino]-5,8-dioxo-6-(propan-2-yl)-5,6,7,8-tetrahydro-4H-pyrazolo[1,5-a]pyrrolo[3,4-d]pyrimidin-4-yl}acetamide]
